Experimental data taken from US4567200A, “Esters of mercapto acyl-carnitines and pharmaceutical compositions containing same” (Sigma-Tau Industrie Farmaceutiche Riunite S.p.A., priority 1981, dated 1986).
Where a name gives a salt, the structure may show the parent alone.

Legend:
[1] = Protection against X-ray exposure, survival of irradiated rats; type: in vivo, Albino Wister rats; details: 20-25 mg Kg^-1 1 hour before irradiation and 10 mg Kg^-1 per day in subsequent 20 days
Protocol: The effect of the compounds of formula (I) towards the damages provoked by X-ray exposure was studied.
The experiment animals, Albino Wister rats, treated with the compounds under examination (20-25 mg Kg^-1 1 hour before irradiation and 10 mg Kg^-1 per day in the subsequent 20 days) were irradiated and checked over a time period to detect the onset of toxic effects and the time of survival with respect to the control group.
In table II, the percentage of survival at the 10th, 15th and 20th day from irradiation are reported.

[2] = Cutaneous regeneration from burns in rabbits; type: in vivo; details: 25 mg Kg^-1 oral once a day for seven days
Protocol: The ability of the compounds of formula (I) to speed up the cutaneous regeneration from burns has been tested in rabbits.
A 4 cm^2 cutaneous area of the average-top zone of the test animal back was burned.
The compounds were orally administered in aqueous solution at the dose of 25 mg Kg^-1 once a day for seven days. The area of cutaneous regeneration, i.e., the area of the newly formed tissue was then measured (Table III).

[3] = Acute toxicity in the mouse, Weil method; details: in vivo, ip
Excerpt: The acute toxicity of the compounds of general formula (I) has been studied in the mouse with the Weil method (Weil C.S., Biometr. J. 8, 249, 1952).
The LD50 values of some compounds illustrated in Table I, indicate that the compounds are remarkably well tolerated.
LD50, mg Kg^-1, ep in mice of some mercapto
acyl-carnitine esters of general formula (I).
Weil's method (N = 5, K = 4)

[4] = Expectorant activity (bronchial secretion), method of Perry et al.; type: in vivo, male rabbits; details: rabbits
Protocol: The tests were carried out on male rabbits, weighing 2-3 Kg, anesthetized with ethyl urethane, by following the method disclosed by Perry et al. (J. Pharm. Exp. Ther. 73, 65, 1941).
Each cannula was connected to a feeding device which delivered a steady flow-rate of pre-heated air (36°-38° C.) at constant humidity (80%). At the lower end of each cannula, a graduated cylinder was fitted, wherein the bronchial secretion was collected. All of the animals breathed spontaneously and consequently they self-regulated the air intake suitable for normal respiration. After an hour following cannula insertion, the animals were administered orally (by stomach tube) the compounds of general formula (I) dissolved in distilled water at the doses indicated in Table IV. Each dose of drug was administered to 5 animals. The control animals (8) were given water only. The amount of secretion was determined after 1, 2 and 4 hours from administration.

[5] = Mucolytic activity in vitro, thromboelastograph, method of Morandini et al.; details: human sputum
Protocol: The tests were carried out in vitro by using the method disclosed by Morandini et al. (Lotta contro la tubercolosi 47, n. 4, 1977). A thromboelastograph was used to follow the variations induced by the compounds of general formula (I) and acetylcysteine on the rheological properties of human sputum.

[6] = 1 ml of a 10% solution at dilution 1/30
[7] = 1 ml of a 10% solution at dilution 1/60

Row | SMILES | Percentage of surviving animals ([1]; 10th day from irradiation) [%] | Percentage of surviving animals ([1]; 15th day from irradiation) [%] | Percentage of surviving animals ([1]; 20th day from irradiation) [%] | Percentage of regenerated tissue ([2]; 4th day from treatment) [%] | Percentage of regenerated tissue ([2]; 8th day from treatment) [%] | LD50 [3] [mg/kg] | Percentage variations of bronchial secretion versus values ([4]; oral 20 mg, 1 hour) | Percentage variations of bronchial secretion versus values ([4]; oral 20 mg, 2 hours) | Percentage variations of bronchial secretion versus values ([4]; oral 20 mg, 4 hours) | Percentage drop ± s.e. of the tracing versus maximum peak (mucolytic activity index) [5, 6] [%] | Percentage drop ± s.e. of the tracing versus maximum peak (mucolytic activity index) [5, 7] [%] | Percentage variations of bronchial secretion versus values ([4]; oral 25 mg, 1 hour) | Percentage variations of bronchial secretion versus values ([4]; oral 25 mg, 2 hours) | Percentage variations of bronchial secretion versus values ([4]; oral 25 mg, 4 hours) | Percentage variations of bronchial secretion versus values ([4]; oral 15 mg, 1 hour) | Percentage variations of bronchial secretion versus values ([4]; oral 15 mg, 2 hours) | Percentage variations of bronchial secretion versus values ([4]; oral 15 mg, 4 hours)
1 | COC(=O)CC(C[N+](C)(C)C)OC(=O)CCCCS (stereo not shown) [5-mercapto valeryl carnitine methyl ester] | 85 | 60 | 40 | 45 | 100 | 219 | +0.3% | +0.5% | +1.0% | 90.2 ± 6 | 48.4 ± 4 |  |  |  |  |  | 
2 | CC(=O)N[C@@H](CS)C(=O)O [Acetylcysteine, acetylcysteine, reference compound] |  |  |  |  |  |  |  |  |  | 75.6 ± 7 | 23.8 ± 5 |  |  |  |  |  | 
3 | CC(C)COC(=O)CC(C[N+](C)(C)C)OC(=O)CCCS (stereo not shown) [4-mercapto butyryl carnitine isobutyl ester] | 100 | 75 | 55 | 25 | 75 | 231 |  |  |  |  |  | +0.5% | +0.9% | +2.1% |  |  | 
4 | CC(C)OC(=O)CC(C[N+](C)(C)C)OC(=O)CS (stereo not shown) [mercapto acetyl carnitine hydrochloride isopropyl-ester] | 80 | 55 | 30 | 30 | 70 | 250 |  |  |  | 82.5 ± 5 | 44.3 ± 3 |  |  |  | +0.5% | +0.7% | +2.1%
5 | CCOC(=O)CC(C[N+](C)(C)C)OC(=O)CCS (stereo not shown) [3-mercapto propionyl carnitine ethyl ester] | 90 | 85 | 60 | 40 | 100 | 228 | +0.6% | +0.8% | +1.0% | 79.8 ± 4 | 39.5 ± 5 |  |  |  |  |  | 
6 | CC(C)COC(=O)CC(C[N+](C)(C)C)OC(=O)C(C)S (stereo not shown) [2-mercapto propionyl carnitine isobutyl ester] | 85 | 70 | 45 | 25 | 65 | 274 |  |  |  | 80.4 ± 7 | 42.8 ± 4 |  |  |  |  | -0.1% | +0.5%
7 | CCC(S)C(=O)OC(CC(=O)OCC(C)C)C[N+](C)(C)C (stereo not shown) [2-mercapto butyryl carnitine isobutyl ester] | 95 | 65 | 50 | 35 | 70 | 236 |  | -0.4% | +0.2% | 95.9 ± 5 | 51.2 ± 3 |  |  |  |  |  | 
